Values of other authors in US20240264148A1, “SYSTEM AND METHOD OF IDENTIFYING BIOMARKERS FOR CHEMO-RESISTANCE IN CANCER AND IDENTIFYING TARGETS THAT CAN REVERSE CHEMO-RESISTANCE IN CANCER” (OROC, priority 2019, published 2024).

Test system: recurrent ovarian cancer
Settings: patients

For `Cc1nc(Nc2ncc(C(=O)Nc3c(C)cccc3Cl)s2)cc(N2CCN(CCO)CC2)n1` [Dasatinib], the safety and tolerability is listed as “safe to use as a drug with good tolerability”.
